Data as given in PubChem BioAssay AID2060340 (Molecular Pharmacology Branch, DTP, NCI, 2025).
pIC50: −log10 of the molar value. “And” between values parts separate entries of the source, which are not always exact repeats. Identical values can stand only once. Blank lines part the entries; values can stand above or below the molecule they belong to.

System: 349418-098-R-PDC spheroids, viability, % test/control
Experiment: Anticancer human tumor 349418-098-R-PDC patient-derived lung adenocarcinoma cell line growth inhibition [IpAb]
Conditions: spheroids with HUVEC and MSC; for viability, T/C: stronger effect = lower value
Method in brief: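 Multi-cell spheroids of 60% tumour cells, 25% HUVEC and 15% MSC in ultra-low-attachment U-bottom wells, treated with agents combined with ipatasertib or abemaciclib. Half-log ranges top out near clinical Cmax, or 10 microM when Cmax is unknown.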

[1] = curve of first compound, second compound 0.01 µM
[2] = curve of first compound, second compound 0.0316 µM
[3] = curve of first compound, second compound 0.1 µM
[4] = curve of first compound, second compound 0.316 µM
[5] = curve of first compound, second compound 1 µM
[6] = second compound 0.01 µM, first compound 0.0316 µM
[7] = second compound 0.01 µM, first compound 0.1 µM
[8] = second compound 0.01 µM, first compound 0.316 µM
[9] = second compound 0.01 µM, first compound 1 µM
[10] = second compound 0.0316 µM, first compound 0.0316 µM
[11] = second compound 0.0316 µM, first compound 0.1 µM
[12] = second compound 0.0316 µM, first compound 0.316 µM
[13] = second compound 0.0316 µM, first compound 1 µM
[14] = second compound 0.1 µM, first compound 0.0316 µM
[15] = second compound 0.1 µM, first compound 0.1 µM
[16] = second compound 0.1 µM, first compound 0.316 µM
[17] = second compound 0.1 µM, first compound 1 µM
[18] = second compound 0.316 µM, first compound 0.0316 µM
[19] = second compound 0.316 µM, first compound 0.1 µM
[20] = second compound 0.316 µM, first compound 0.316 µM
[21] = second compound 0.316 µM, first compound 1 µM
[22] = second compound 1 µM, first compound 0.0316 µM
[23] = second compound 1 µM, first compound 0.1 µM
[24] = second compound 1 µM, first compound 0.316 µM
[25] = second compound 1 µM, first compound 1 µM
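Note: spheroids exposed to compounds for 7 days.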

Compound: COc1c(OCCCN2CCOCC2)ccc2c3n(c(=NC(=O)c4cnc(N)nc4)nc12)CCN3 + CCN1CCN(Cc2ccc(Nc3ncc(F)c(-c4cc(F)c5nc(C)n(C(C)C)c5c4)n3)nc2)CC1
pIC50 [1]: 8.25
pIC50 [2]: > 8.50
pIC50 [3]: > 8.50
pIC50 [4]: > 8.50
pIC50 [5]: > 8.50
viability, T/C (second compound 0.01 µM, first compound 0.00316 µM): 66.8%
viability, T/C (second compound 0.01 µM, first compound 0.01 µM): 32.9%
viability, T/C [6]: 9.39%
viability, T/C [7]: 6.45%
viability, T/C [8]: 6.48%
viability, T/C [9]: 6.24%
viability, T/C (second compound 0.0316 µM, first compound 0.00316 µM): 48.8%
viability, T/C (second compound 0.0316 µM, first compound 0.01 µM): 13.5%
viability, T/C [10]: 8.91%
viability, T/C [11]: 6.1%
viability, T/C [12]: 5.57%
viability, T/C [13]: 5.71%
viability, T/C (second compound 0.1 µM, first compound 0.00316 µM): 23.6%
viability, T/C (second compound 0.1 µM, first compound 0.01 µM): 14%
viability, T/C [14]: 8.06%
viability, T/C [15]: 6.16%
viability, T/C [16]: 6.04%
viability, T/C [17]: 5.83%
viability, T/C (second compound 0.316 µM, first compound 0.00316 µM): 15.9%
viability, T/C (second compound 0.316 µM, first compound 0.01 µM): 10.6%
viability, T/C [18]: 7.73%
viability, T/C [19]: 6.28%
viability, T/C [20]: 6.11%
viability, T/C [21]: 6.92%
viability, T/C (second compound 1 µM, first compound 0.00316 µM): 14%
viability, T/C (second compound 1 µM, first compound 0.01 µM): 12.3%
viability, T/C [22]: 8.15%
viability, T/C [23]: 6.25%
viability, T/C [24]: 7.04%
viability, T/C [25]: 7.33%

IC50 (compound alone, run of 05/18/2021): 28.5 nM [middle of 12 runs]
Compound: CCN1CCN(Cc2ccc(Nc3ncc(F)c(-c4cc(F)c5nc(C)n(C(C)C)c5c4)n3)nc2)CC1
viability, T/C (compound 0.01 µM): 74.5% [middle of 13 runs]
viability, T/C (compound 0.0316 µM): 44.2% [middle of 13 runs]
viability, T/C (compound 0.1 µM): 26.4% [middle of 13 runs]
viability, T/C (compound 0.316 µM): 19.7% [middle of 12 runs]
viability, T/C (compound 1 µM): 15.5% [middle of 13 runs]

Compound: CC(C)(C)c1cnc(CSc2cnc(NC(=O)C3CCNCC3)s2)o1 + CCN1CCN(Cc2ccc(Nc3ncc(F)c(-c4cc(F)c5nc(C)n(C(C)C)c5c4)n3)nc2)CC1
pIC50 [1]: 7.62
pIC50 [2]: > 8.02
pIC50 [3]: > 8.02
pIC50 [4]: > 8.02
pIC50 [5]: > 8.02
viability, T/C (second compound 0.01 µM, first compound 0.00949 µM): 69.8%
viability, T/C (second compound 0.01 µM, first compound 0.03 µM): 45.4%
viability, T/C (second compound 0.01 µM, first compound 0.0949 µM): 8.31%
viability, T/C (second compound 0.01 µM, first compound 0.3 µM): 2.5%
viability, T/C (second compound 0.01 µM, first compound 0.949 µM): 2.72%
viability, T/C (second compound 0.01 µM, first compound 3 µM): 2.34%
viability, T/C (second compound 0.0316 µM, first compound 0.00949 µM): 47.7%
viability, T/C (second compound 0.0316 µM, first compound 0.03 µM): 36.2%
viability, T/C (second compound 0.0316 µM, first compound 0.0949 µM): 6.02%
viability, T/C (second compound 0.0316 µM, first compound 0.3 µM): 2.71%
viability, T/C (second compound 0.0316 µM, first compound 0.949 µM): 2.93%
viability, T/C (second compound 0.0316 µM, first compound 3 µM): 2.49%
viability, T/C (second compound 0.1 µM, first compound 0.00949 µM): 24.8%
viability, T/C (second compound 0.1 µM, first compound 0.03 µM): 17.7%
viability, T/C (second compound 0.1 µM, first compound 0.0949 µM): 4.01%
viability, T/C (second compound 0.1 µM, first compound 0.3 µM): 2.44%
viability, T/C (second compound 0.1 µM, first compound 0.949 µM): 3%
viability, T/C (second compound 0.1 µM, first compound 3 µM): 2.01%
viability, T/C (second compound 0.316 µM, first compound 0.00949 µM): 14.4%
viability, T/C (second compound 0.316 µM, first compound 0.03 µM): 13.7%
viability, T/C (second compound 0.316 µM, first compound 0.0949 µM): 1.91%
viability, T/C (second compound 0.316 µM, first compound 0.3 µM): 2.83%
viability, T/C (second compound 0.316 µM, first compound 0.949 µM): 3.36%
viability, T/C (second compound 0.316 µM, first compound 3 µM): 2.48%
viability, T/C (second compound 1 µM, first compound 0.00949 µM): 13.9%
viability, T/C (second compound 1 µM, first compound 0.03 µM): 9.5%
viability, T/C (second compound 1 µM, first compound 0.0949 µM): 2.29%
viability, T/C (second compound 1 µM, first compound 0.3 µM): 4.08%
viability, T/C (second compound 1 µM, first compound 0.949 µM): 4.05%
viability, T/C (second compound 1 µM, first compound 3 µM): 3.25%

Compound: C=CC(=O)N1CCN(c2nc(=O)n(-c3c(C)ccnc3C(C)C)c3nc(-c4c(O)cccc4F)c(F)cc23)C(C)C1 (centres undefined) + CCN1CCN(Cc2ccc(Nc3ncc(F)c(-c4cc(F)c5nc(C)n(C(C)C)c5c4)n3)nc2)CC1
pIC50 [1]: 5.33
pIC50 [2]: 6.91
pIC50 [3]: > 7.50
pIC50 [4]: > 7.50
pIC50 [5]: > 7.50
viability, T/C [6]: 90.2%
viability, T/C [7]: 82.9%
viability, T/C [8]: 82.8%
viability, T/C [9]: 87.1%
viability, T/C (second compound 0.01 µM, first compound 3.16 µM): 57.2%
viability, T/C (second compound 0.01 µM, first compound 10 µM): 35.5%
viability, T/C [10]: 58.9%
viability, T/C [11]: 47.8%
viability, T/C [12]: 43.2%
viability, T/C [13]: 41.2%
viability, T/C (second compound 0.0316 µM, first compound 3.16 µM): 35.1%
viability, T/C (second compound 0.0316 µM, first compound 10 µM): 20.5%
viability, T/C [14]: 33.9%
viability, T/C [15]: 28.7%
viability, T/C [16]: 31.4%
viability, T/C [17]: 29.6%
viability, T/C (second compound 0.1 µM, first compound 3.16 µM): 23.3%
viability, T/C (second compound 0.1 µM, first compound 10 µM): 13.2%
viability, T/C [18]: 19.7%
viability, T/C [19]: 22%
viability, T/C [20]: 22.1%
viability, T/C [21]: 21.2%
viability, T/C (second compound 0.316 µM, first compound 3.16 µM): 18.1%
viability, T/C (second compound 0.316 µM, first compound 10 µM): 14.1%
viability, T/C [22]: 19.3%
viability, T/C [23]: 21.5%
viability, T/C [24]: 20.9%
viability, T/C [25]: 16%
viability, T/C (second compound 1 µM, first compound 3.16 µM): 19.2%
viability, T/C (second compound 1 µM, first compound 10 µM): 10.9%

pIC50 (curve of compound): 5.02 and 5.15
Compound: C=CC(=O)N1CCN(c2nc(=O)n(-c3c(C)ccnc3C(C)C)c3nc(-c4c(O)cccc4F)c(F)cc23)C(C)C1 (centres undefined)
viability, T/C (compound 0.0316 µM): 109% and 107%
viability, T/C (compound 0.1 µM): 107% and 104%
viability, T/C (compound 0.316 µM): 105% and 94.1%
viability, T/C (compound 1 µM): 102% and 96.4%
viability, T/C (compound 3.16 µM): 72.9% and 76.2%
viability, T/C (compound 10 µM): 48.9% and 38%

Compound: Cn1nccc1Nc1nccc(-c2ccn(C(CO)c3ccc(Cl)c(F)c3)c(=O)c2)n1 (centres undefined)
viability, T/C (compound 0.0316 µM): 50.1% and 54.6%
viability, T/C (compound 0.1 µM): 42.6% and 45.7%
viability, T/C (compound 0.316 µM): 57.2% and 49.9%
viability, T/C (compound 1 µM): 44.4% and 49.7%
viability, T/C (compound 3.16 µM): 29% and 30.1%
viability, T/C (compound 10 µM): 19.7% and 21.3%
